Experimental findings from patent US8574563B2 (Bristol-Myers Squibb Company, priority 2006, dated 2013) are described below.

The subject of the test is HCV 1b-377-neo replicon cells. Put plainly: HCV replicon assay, HCV 1b-377-neo replicon cells (1b FRET). Type of test: cell-based, Hepatitis C virus genotype 1b. As to conditions: Hepatitis C virus, HCV 1b-377-neo replicon cells; HCV 1b genotype; read-out: EC50 range against HCV 1b (Table 2, Range). The essentials:
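Compounds tested in HCV genotype 1b-377-neo replicon cells with a FRET read-out. Cells resistant to a reference NS5A inhibitor through a Y2065H NS5A mutation were run alongside wild-type cells.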
For orientation: A replicon is a self-replicating genome or part of one, used to study replication in cells.

pEC50: −log10 of the molar value.

The term pEC50 denotes the EC50 on a negative log10 scale, so that one unit is a factor of ten.

As for `COC(=O)N[C@@H](C)C(=O)N1CCC[C@H]1c1ncc(-c2ccc(-c3ccc(-c4cnc([C@@H]5CCCN5C(=O)[C@@H](Nc5cccnc5)C(C)C)[nH]4)cc3)cc2)[nH]1` [cj-20a, methyl ((1S)-1-methyl-2-oxo-2-((2S)-2-(5-(4′-(2-((2S)-1-(N-3-pyridinyl-L-valyl)-2-pyrrolidinyl)-1H-imidazol-5-yl)-4-biphenylyl)-1H-imidazol-2-yl)-1-pyrrolidinyl)ethyl)carbamate], the pEC50 was 9.00 to 12.00.

For `COC(=O)N[C@H](C(=O)N1CCC[C@H]1c1ncc(-c2ccc(-c3ccc(-c4cnc([C@@H]5CCCN5C(=O)[C@@H](Nc5cccnc5)C(C)C)[nH]4)cc3)cc2)[nH]1)[C@@H](C)OC` [cj-20b, methyl ((1S,2R)-2-methoxy-1-(((2S)-2-(5-(4′-(2-((2S)-1-(N-3-pyridinyl-L-valyl)-2-pyrrolidinyl)-1H-imidazol-5-yl)-4-biphenylyl)-1H-imidazol-2-yl)-1-pyrrolidinyl)carbonyl)propyl)carbamate], the pEC50 was 9.00 to 12.00.

For `CCN(CC)[C@@H](C(=O)N1CCC[C@H]1c1ncc(-c2ccc(-c3ccc(-c4cnc([C@@H]5CCCN5C(=O)[C@@H](Nc5cccnc5)C(C)C)[nH]4)cc3)cc2)[nH]1)c1ccccc1` [cj-20c, N-((1S)-1-(((2S)-2-(5-(4′-(2-((2S)-1-((2R)-2-(diethylamino)-2-phenylacetyl)-2-pyrrolidinyl)-1H-imidazol-5-yl)-4-biphenylyl)-1H-imidazol-2-yl)-1-pyrrolidinyl)carbonyl)-2-methylpropyl)-3-pyridinamine], the pEC50 was 9.00 to 12.00.

In the case of `COC(=O)N[C@H](C(=O)N1CCC[C@H]1c1ncc(-c2ccc(-c3ccc(-c4cnc([C@@H]5CCCN5C(=O)[C@@H](Nc5cncnc5)C(C)C)[nH]4)cc3)cc2)[nH]1)C(C)C` [cj-20d, methyl ((1S)-2-methyl-1-(((2S)-2-(5-(4′-(2-((2S)-1-(N-5-pyrimidinyl-L-valyl)-2-pyrrolidinyl)-1H-imidazol-5-yl)-4-biphenylyl)-1H-imidazol-2-yl)-1-pyrrolidinyl)carbonyl)propyl)carbamate], the negative logarithm of the EC50 (pEC50) was 9.00 to 12.00.

`CCN(CC)[C@@H](C(=O)N1CCC[C@H]1c1ncc(-c2ccc(-c3ccc(-c4cnc([C@@H]5CCCN5C(=O)[C@H](Cc5c[nH]nn5)NC(=O)OC)[nH]4)cc3)cc2)[nH]1)c1ccccc1` [cj-32, methyl ((1S)-2-((2S)-2-(5-(4′-(2-((2S)-1-((2R)-2-(diethylamino)-2-phenylacetyl)-2-pyrrolidinyl)-1H-imidazol-5-yl)-4-biphenylyl)-1H-imidazol-2-yl)-1-pyrrolidinyl)-2-oxo-1-(1H-1,2,3-triazol-4-ylmethyl)ethyl)carbamate]: the pEC50 was 9.00 to 12.00.

With `COC(=O)N[C@@H](C)C(=O)N1CCC[C@H]1c1ncc(-c2ccc(-c3ccc(-c4cnc([C@@H]5CCCN5C(=O)[C@H](Cc5c[nH]nn5)NC(=O)OC)[nH]4)cc3)cc2)[nH]1` [cj-33, methyl ((1S)-2-((2S)-2-(5-(4′-(2-((2S)-1-(N-(methoxycarbonyl)-L-alanyl)-2-pyrrolidinyl)-1H-imidazol-5-yl)-4-biphenylyl)-1H-imidazol-2-yl)-1-pyrrolidinyl)-2-oxo-1-(1H-1,2,3-triazol-4-ylmethyl)ethyl)carbamate], the pEC50 is 9.00 to 12.00.

Consider `COC(=O)N[C@@H](Cc1c[nH]nn1)C(=O)N1CCC[C@H]1c1ncc(-c2ccc(-c3ccc(-c4cnc([C@@H]5CCCN5C(=O)[C@@H](NC(=O)OC)C(C)C)[nH]4)cc3)cc2)[nH]1` [cj-34, methyl ((1S)-1-(((2S)-2-(5-(4′-(2-((2S)-1-((2S)-2-((methoxycarbonyl)amino)-3-(1H-1,2,3-triazol-4-yl)propanoyl)-2-pyrrolidinyl)-1H-imidazol-5-yl)-4-biphenylyl)-1H-imidazol-2-yl)-1-pyrrolidinyl)carbonyl)-2-methylpropyl)carbamate], for which the negative-log EC50 (pEC50) is 9.00 to 12.00.

Regarding `COC(=O)N[C@@H](Cc1c[nH]nn1)C(=O)N1CCC[C@H]1c1ncc(-c2ccc(-c3ccc(-c4cnc([C@@H]5CCCN5C(=O)[C@@H](NC(=O)OC)[C@@H](C)OC)[nH]4)cc3)cc2)[nH]1` [cj-35, methyl ((1S)-2-((2S)-2-(5-(4′-(2-((2S)-1-((2S,3R)-3-methoxy-2-((methoxycarbonyl)amino)butanoyl)-2-pyrrolidinyl)-1H-imidazol-5-yl)-4-biphenylyl)-1H-imidazol-2-yl)-1-pyrrolidinyl)-2-oxo-1-(1H-1,2,3-triazol-4-ylmethyl)ethyl)carbamate], the pEC50 was 7.00 to 9.00.

Regarding `CCN(CC)[C@@H](C(=O)N1CCC[C@H]1c1ncc(-c2ccc(-c3ccc(-c4cnc([C@@H]5CCCN5C(=O)[C@H](Cn5cccn5)NC(=O)OC)[nH]4)cc3)cc2)[nH]1)c1ccccc1` [cj-36, methyl ((1S)-2-((2S)-2-(5-(4′-(2-((2S)-1-((2R)-2-(diethylamino)-2-phenylacetyl)-2-pyrrolidinyl)-1H-imidazol-5-yl)-4-biphenylyl)-1H-imidazol-2-yl)-1-pyrrolidinyl)-2-oxo-1-(1H-pyrazol-1-ylmethyl)ethyl)carbamate], the pEC50 was 9.00 to 12.00.

For the compound `COC(=O)N[C@@H](C)C(=O)N1CCC[C@H]1c1ncc(-c2ccc(-c3ccc(-c4cnc([C@@H]5CCCN5C(=O)[C@H](Cn5cccn5)NC(=O)OC)[nH]4)cc3)cc2)[nH]1` [cj-37, methyl ((1S)-2-((2S)-2-(5-(4′-(2-((2S)-1-(N-(methoxycarbonyl)-L-alanyl)-2-pyrrolidinyl)-1H-imidazol-5-yl)-4-biphenylyl)-1H-imidazol-2-yl)-1-pyrrolidinyl)-2-oxo-1-(1H-pyrazol-1-ylmethyl)ethyl)carbamate], the pEC50 was 9.00 to 12.00.

With `COC(=O)N[C@@H](Cn1cccn1)C(=O)N1CCC[C@H]1c1ncc(-c2ccc(-c3ccc(-c4cnc([C@@H]5CCCN5C(=O)[C@@H](NC(=O)OC)C(C)C)[nH]4)cc3)cc2)[nH]1` [cj-38, methyl ((1S)-1-(((2S)-2-(5-(4′-(2-((2S)-1-((2S)-2-((methoxycarbonyl)amino)-3-(1H-pyrazol-1-yl)propanoyl)-2-pyrrolidinyl)-1H-imidazol-5-yl)-4-biphenylyl)-1H-imidazol-2-yl)-1-pyrrolidinyl)carbonyl)-2-methylpropyl)carbamate], the pEC50 is 9.00 to 12.00.

Regarding `COC(=O)N[C@@H](Cn1cccn1)C(=O)N1CCC[C@H]1c1ncc(-c2ccc(-c3ccc(-c4cnc([C@@H]5CCCN5C(=O)[C@@H](NC(=O)OC)[C@@H](C)OC)[nH]4)cc3)cc2)[nH]1` [cj-39, methyl ((1S)-2-((2S)-2-(5-(4′-(2-((2S)-1-(N-(methoxycarbonyl)-O-methyl-L-threonyl)-2-pyrrolidinyl)-1H-imidazol-5-yl)-4-biphenylyl)-1H-imidazol-2-yl)-1-pyrrolidinyl)-2-oxo-1-(1H-pyrazol-1-ylmethyl)ethyl)carbamate], the pEC50 is 9.00 to 12.00.

As to `CCN(CC)[C@@H](C(=O)N1CCC[C@H]1c1ncc(-c2ccc(-c3ccc(-c4cnc([C@@H]5CCCN5C(=O)[C@H](Cc5cn(C)cn5)NC(=O)OC)[nH]4)cc3)cc2)[nH]1)c1ccccc1` [cj-40, methyl ((1S)-2-((2S)-2-(5-(4′-(2-((2S)-1-((2R)-2-(diethylamino)-2-phenylacetyl)-2-pyrrolidinyl)-1H-imidazol-5-yl)-4-biphenylyl)-1H-imidazol-2-yl)-1-pyrrolidinyl)-1-((1-methyl-1H-imidazol-4-yl)methyl)-2-oxoethyl)carbamate], the pEC50 is 9.00 to 12.00.

For the compound `COC(=O)N[C@@H](C)C(=O)N1CCC[C@H]1c1ncc(-c2ccc(-c3ccc(-c4cnc([C@@H]5CCCN5C(=O)[C@H](Cc5cn(C)cn5)NC(=O)OC)[nH]4)cc3)cc2)[nH]1` [cj-41, methyl ((1S)-2-((2S)-2-(5-(4′-(2-((2S)-1-(N-(methoxycarbonyl)-L-alanyl)-2-pyrrolidinyl)-1H-imidazol-5-yl)-4-biphenylyl)-1H-imidazol-2-yl)-1-pyrrolidinyl)-1-((1-methyl-1H-imidazol-4-yl)methyl)-2-oxoethyl)carbamate], the pEC50 was 9.00 to 12.00.

On to `COC(=O)N[C@@H](Cc1cn(C)cn1)C(=O)N1CCC[C@H]1c1ncc(-c2ccc(-c3ccc(-c4cnc([C@@H]5CCCN5C(=O)[C@@H](NC(=O)OC)C(C)C)[nH]4)cc3)cc2)[nH]1` [cj-42, methyl ((1S)-1-(((2S)-2-(5-(4′-(2-((2S)-1-((2S)-2-((methoxycarbonyl)amino)-3-(1-methyl-1H-imidazol-4-yl)propanoyl)-2-pyrrolidinyl)-1H-imidazol-5-yl)-4-biphenylyl)-1H-imidazol-2-yl)-1-pyrrolidinyl)carbonyl)-2-methylpropyl)carbamate], for which the pEC50 is 9.00 to 12.00.

In the case of `COC(=O)N[C@@H](Cc1cn(C)cn1)C(=O)N1CCC[C@H]1c1ncc(-c2ccc(-c3ccc(-c4cnc([C@@H]5CCCN5C(=O)[C@@H](NC(=O)OC)[C@@H](C)OC)[nH]4)cc3)cc2)[nH]1` [cj-43, methyl ((1S)-2-((2S)-2-(5-(4′-(2-((2S)-1-((2S,3R)-3-methoxy-2-((methoxycarbonyl)amino)butanoyl)-2-pyrrolidinyl)-1H-imidazol-5-yl)-4-biphenylyl)-1H-imidazol-2-yl)-1-pyrrolidinyl)-1-((1-methyl-1H-imidazol-4-yl)methyl)-2-oxoethyl)carbamate], the pEC50 is 9.00 to 12.00.

Regarding `CCN(CC)[C@@H](C(=O)N1CCC[C@H]1c1ncc(-c2ccc(-c3ccc(-c4cnc([C@@H]5CCCN5C(=O)[C@H](Cc5cncn5C)NC(=O)OC)[nH]4)cc3)cc2)[nH]1)c1ccccc1` [cj-44, methyl ((1S)-2-((2S)-2-(5-(4′-(2-((2S)-1-((2R)-2-(diethylamino)-2-phenylacetyl)-2-pyrrolidinyl)-1H-imidazol-5-yl)-4-biphenylyl)-1H-imidazol-2-yl)-1-pyrrolidinyl)-1-((1-methyl-1H-imidazol-5-yl)methyl)-2-oxoethyl)carbamate], the pEC50 was 9.00 to 12.00.
